Read-outs that look alike come from different tables or passages of the source.
What was measured:
Format in all cases: cell-based
5HT2A sensor [1] = assay: 5HT2A sensor assay, agonist mode (sLight1.3s HEK293T stable line); conditions: percent relative to 5-HT at 100 uM; for 5HT2A Agonist mean @ 100 nM (%): 100 nM compound; for 5HT2A Agonist mean @ 10 μM (%): 10 μM compound; for 5HT2A Agonist mean @ 100 μM (%): 100 μM compound
Method in brief: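 Fluorescence change, dFF=(Fsat−Fapo)/Fapo, was taken from membrane images (460 nm excitation) before and after compound addition and scaled as % activation, with the DMSO mean as 0 and the 5HT mean as 100. The cells were sLight1.3s HEK293T in HBSS. Final compound levels were 100 μM, 10 μM and 100 nM in 0.1% DMSO, in triplicate.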

5HT2A = target: T1, 5HT2A (Homo sapiens, UniProt P28223); assay: Calcium flux assay (Calcium secondary messenger pathway); conditions: agonist mode
T1 construct: expressed in transfected cells
T1 sequence (P28223 whole entry): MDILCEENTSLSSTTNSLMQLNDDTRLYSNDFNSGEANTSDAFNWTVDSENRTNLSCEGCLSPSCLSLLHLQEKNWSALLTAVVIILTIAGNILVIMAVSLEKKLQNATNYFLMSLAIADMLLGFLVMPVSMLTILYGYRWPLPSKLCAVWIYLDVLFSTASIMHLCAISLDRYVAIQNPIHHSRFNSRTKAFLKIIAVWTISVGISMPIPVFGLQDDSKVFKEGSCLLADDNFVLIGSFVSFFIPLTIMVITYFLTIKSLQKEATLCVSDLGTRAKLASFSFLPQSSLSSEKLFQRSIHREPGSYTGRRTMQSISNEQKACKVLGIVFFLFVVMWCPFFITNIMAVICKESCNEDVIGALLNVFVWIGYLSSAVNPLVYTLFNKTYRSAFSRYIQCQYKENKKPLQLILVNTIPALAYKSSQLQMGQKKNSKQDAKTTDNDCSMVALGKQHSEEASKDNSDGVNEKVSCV
From the text: Calcium Flux Assay. Calcium Secondary Messenger Pathway. The Calcium No Wash^PLUS assay monitors the activation of a GPCR (e.g., 5HT2A) via Gq secondary messenger signaling in a live cell, non-imaging assay format. Calcium mobilization in PathHunter® cell lines or other cell lines stably expressing Gq-coupled GPCRs (e.g., 5HT2A) is monitored using a calcium-sensitive dye that is loaded into cells. GPCR (e.g., 5HT2A) activation by a compound results in the release of calcium from intracellular stores and an increase in dye fluorescence that is measured in real-time. In some embodiments, the ability of a compound of the present invention to modulate 5-HT2A function is determined using a calcium flux assay. In some embodiments, a compound of the present invention activates a calcium flux assay.
Calcium Secondary Messenger Pathway. Cell lines were expanded from freezer stocks according to standard procedures. Cells were seeded in a total volume of 20 μL into black-walled, clear-bottom, Poly-D-lysine coated 384-well microplates and incubated at 37° C. for the appropriate time prior to testing. Assays were performed in 1× Dye Loading Buffer consisting of 1× Dye, 1× Additive A and 2.5 mM Probenecid in HBSS/20 mM Hepes. Probenicid was prepared fresh. Cells were loaded with dye prior to testing. Media was aspirated from cells and replaced with 20 μL Dye Loading Buffer. Cells were incubated for 30-60 minutes at 37° C.
For agonist determination, cells were incubated with sample to induce response. After dye loading, cells were removed from the incubator and 10 μL HBSS/20 mM Hepes was added. 3× vehicle was included in the buffer when performing agonist dose curves to define the EC80 for subsequent antagonist assays. Cells were incubated for 30 minutes at room temperature in the dark to equilibrate plate temperature. Intermediate dilution of sample stocks was performed to generate 4× sample in assay buffer. Compound agonist activity was measured on a FLIPR Tetra (MDS). Calcium mobilization was monitored for 2 minutes and 10 μL 4× sample in HBSS/20 mM Hepes was added to the cells 5 seconds into the assay.
Compound activity was analyzed using CBIS data analysis suite (ChemInnovation, CA). For agonist mode assays, percentage activity is calculated using the following formula: % Activity=100%×(mean RFU of test sample−mean RFU of vehicle control)/(mean MAX RFU control ligand−mean RFU of vehicle control).

5HT2A sensor [2] = assay: 5HT2A sensor assay, antagonist mode (sLight1.3s HEK293T stable line); conditions: relative to 5-HT at 100 nM; for 5HT2A Antagonist mean @ 100 nM (%): 100 nM compound; for 5HT2A Antagonist mean @ 10 μM (%): 10 μM compound; for 5HT2A Antagonist mean @ 100 μM (%): 100 μM compound
Method in brief: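 Inactivation score is computed from membrane dFF as (dFF(compound+5HT)−dFF(5HT))/dFF(5HT), with HBSS-only fluorescence as Fapo. Final concentrations: 5-HT 100 nM added first, then compound at 100 nM, 10 μM or 100 μM in 0.1% DMSO. Triplicates; FITC imaging, 5 fields per well.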

rat cortical neurons = assay: Neurite outgrowth assay; conditions: Cortical neurone, 1 hour treatment at DIV 4, analysed DIV 7, fold vs DMSO control
From the text: Neurite outgrowth assay. Changes in the pattern of neurite outgrowth have been implicated in neurodegenerative disorders as well as traumatic injuries. The discovery of new compounds that can positively affect neuritogenesis are important for developing new therapeutics for neurological diseases. Measurement of neurite outgrowth of rat cortical neurons using an automated image-based assay was used to determine the neuroplastic effects of the compounds of the present invention. In some embodiments, a compound of the present invention increases the pattern of neurite outgrowth. In some embodiments, a compound of the present invention increases neurite average length compared to a control. In some embodiments, a compound of the present invention increases neurite branch points compared to a control. In some embodiments, a compound of the present invention increases neurite average length and neurite branch points compared to a control.
Neurite Outgrowth Assay. Rat cortical neurons (20,000 cells/well) were freshly isolated from embryonic day 18 rats and cultured in Neurobasal Medium (+B27). The cultured cells were plated in 96 well-plates (avoiding external wells). At DIV 4, the neurons were treated with compound or control (10 μM) for 1 hour followed by complete washout of the compound. At DIV 7, the neurons were analyzed. The experiments were performed in triplicate. Neurite outgrowth was measured analyzing the following parameters: Number of Cell Bodies, total neurite length (pixels), Root Count, Segments, Extremities Count and node points. Changes in the pattern of neurite outgrowth of the neurons were analyzed by immunocytochemistry against β-III-tubulin. Pictures were acquired by the CellInsight CX7 from Thermo Fisher and analyzed using its software. Results generated in the equipment were maximum neurite length, extremity count, root count, dendrite branch points, and total neurite length. The results were compared to DMSO control, representing the fold-change in neuronal outgrowth.

[3] = read-out: Neurite Average Length @ 10 μM
[4] = read-out: Neurite Branch Points: @ 10 μM

Compound | 5HT2A Agonist mean @ 100 nM (%) (5HT2A sensor [1]) | 5HT2A Agonist mean @ 10 μM (%) (5HT2A sensor [1]) | 5HT2A Agonist mean @ 100 μM (%) (5HT2A sensor [1]) | EC50 (5HT2A) | 5HT2A Antagonist mean @ 100 nM (%) (5HT2A sensor [2]) | 5HT2A Antagonist mean @ 10 μM (%) (5HT2A sensor [2]) | 5HT2A Antagonist mean @ 100 μM (%) (5HT2A sensor [2]) | fold induction at 10 µM (rat cortical neurons; [3]) | fold induction at 10 µM (rat cortical neurons; [4])
FC(F)(F)Oc1ccc2c(ccn2CCN2CCCCC2)c1 [Example 51, 1-(2-(piperidin-1-yl)ethyl)-5-(trifluoromethoxy)-1H-indole] | B (does not activate 5HT2A sensor assay in agonist mode) | B (does not activate 5HT2A sensor assay in agonist mode) | B (does not activate 5HT2A sensor assay in agonist mode) | > 10 µM | A (inhibits 5HT response by >100%) | A (inhibits 5HT response by >100%) | A (inhibits 5HT response by >100%) | 1.5 to 3 | 1.5 to 3
Cc1cc2cc(F)ccc2n1C[C@@H](C)N(C)C [Example 73, (R)-1-(5-fluoro-2-methyl-1H-indol-1-yl)-N,N-dimethylpropan-2-amine] | B (does not activate 5HT2A sensor assay in agonist mode) | B (does not activate 5HT2A sensor assay in agonist mode) | A (activates 5HT2A sensor assay in agonist mode) | > 10 µM | B (inhibits 5HT response by 75% to 100%) | B (inhibits 5HT response by 75% to 100%) | A (inhibits 5HT response by >100%) | 1.5 to 3 | 1.5 to 3
COc1ccc2c(ccn2CCN2CCOCC2)c1 [Example 46, 4-(2-(5-methoxy-1H-indol-1-yl)ethyl)morpholine] | B (does not activate 5HT2A sensor assay in agonist mode) | B (does not activate 5HT2A sensor assay in agonist mode) | B (does not activate 5HT2A sensor assay in agonist mode) | > 10 µM | A (inhibits 5HT response by >100%) | A (inhibits 5HT response by >100%) | A (inhibits 5HT response by >100%) | 1.5 to 3 | 1.5 to 3
COc1cc2c(ccn2C[C@@H](C)N(C)C)cc1F [Example 70, (R)-1-(5-fluoro-6-methoxy-1H-indol-1-yl)-N,N-dimethylpropan-2-amine] | B (does not activate 5HT2A sensor assay in agonist mode) | B (does not activate 5HT2A sensor assay in agonist mode) | B (does not activate 5HT2A sensor assay in agonist mode) | < 10 µM | B (inhibits 5HT response by 75% to 100%) | B (inhibits 5HT response by 75% to 100%) | A (inhibits 5HT response by >100%) | 1.5 to 3 | 1.5 to 3
Clc1ccc2c(ccn2CCN2CCOCC2)c1 [Example 49, 4-(2-(5-chloro-1H-indol-1-yl)ethyl)morpholine] | B (does not activate 5HT2A sensor assay in agonist mode) | B (does not activate 5HT2A sensor assay in agonist mode) | A (activates 5HT2A sensor assay in agonist mode) | > 10 µM | A (inhibits 5HT response by >100%) | B (inhibits 5HT response by 75% to 100%) | C (inhibits 5HT response by <75%) | 1.5 to 3 | 1.5 to 3
C[C@H](Cn1ccc2cc(F)c(F)cc21)N(C)C [Example 68, (R)-1-(5,6-difluoro-1H-indol-1-yl)-N,N-dimethylpropan-2-amine] | B (does not activate 5HT2A sensor assay in agonist mode) | B (does not activate 5HT2A sensor assay in agonist mode) | A (activates 5HT2A sensor assay in agonist mode) | > 10 µM | B (inhibits 5HT response by 75% to 100%) | A (inhibits 5HT response by >100%) | A (inhibits 5HT response by >100%) | 1.5 to 3 | > 3
Cc1nc2ccccc2n1CCN(C)C [Example 58, N,N-dimethyl-2-(2-methyl-1H-benzo[d]imidazol-1-yl)ethan-1-amine] | B (does not activate 5HT2A sensor assay in agonist mode) | B (does not activate 5HT2A sensor assay in agonist mode) | A (activates 5HT2A sensor assay in agonist mode) | > 10 µM | A (inhibits 5HT response by >100%) | A (inhibits 5HT response by >100%) | A (inhibits 5HT response by >100%) | 1.5 to 3 | 1.5 to 3
C[C@H](Cn1ccc2c(F)c(F)ccc21)N(C)C [Example 67, (R)-1-(4,5-difluoro-1H-indol-1-yl)-N,N-dimethylpropan-2-amine] | B (does not activate 5HT2A sensor assay in agonist mode) | B (does not activate 5HT2A sensor assay in agonist mode) | B (does not activate 5HT2A sensor assay in agonist mode) | > 10 µM | A (inhibits 5HT response by >100%) | A (inhibits 5HT response by >100%) | A (inhibits 5HT response by >100%) | 1.5 to 3 | > 3
